The text below walks through data of patent publication US9555038B2, “Heterocycle-substituted tetracyclic compounds and methods of use thereof for the treatment of viral diseases” (Merck Sharp & Dohme Corp., priority 2013, dated 2017).

pIC50: −log10 of the molar value. Like-named read-outs stand apart in the source and are kept apart here.

For one assay, the system named is HCV replicon 1A. The assay can be described thus: Cell-based HCV Replicon Assay A, replicon 1A. The essentials: (§1)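 Three-day exposure of replicon cells (2000/well) to serially diluted compound, 0.5% DMSO, 5% serum. RNA per cell was derived as (Ct − intercept)/slope from replicon total RNA standards, with cyclophilin amplified in the same reaction.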
On the technique in general: Replicon systems follow genome replication, usually without infectious particles.

The test system of a further assay is HCV replicon 1AY93H. In words: Cell-based HCV Replicon Assay A, replicon 1AY93H. The conditions noted are these: for pIC50: read-out: 1A Y93H IC50, replicon 1AY93H. The essentials: as §1
A further assay concerns HCV replicon 2B. In words: Cell-based HCV Replicon Assay A, replicon 2B. The settings on record: for pIC50: read-out: 2B IC50, replicon 2B. The essentials:
as §1

The next assay has as its system HCV replicon 1AQ30D. In words: Cell-based HCV Replicon Assay B, replicon 1AQ30D. The conditions noted are these: for pIC50: read-out: 1A Q30D IC50, replicon 1AQ30D; for IC50: Hepatitis C virus, read-out: 1A Q30D IC50 (nM), replicon 1AQ30D. The essentials: (§2)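 EC50 defined as the drug concentration giving a CT increase of 1 above projected baseline, from real-time RT-PCR of replicon RNA using genotype-specific primers and probes. Cells were seeded in 5% FBS, dosed after 24 h and incubated 3 days before lysis.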

The next assay relates to HCV replicon 1B. In words: Cell-based HCV Replicon Assay B, replicon 1B. The essentials: as §2

Broadly, the pIC50 is −log10 of the IC50, conventionally taken in molar units. As for `COC(=O)NC(C(=O)N1CCC[C@H]1c1ncc(-c2ccc3c(c2)cc2n3C(c3cnc(C4CCC4)s3)Oc3cc(-c4cnc([C@@H]5CCCN5C(=O)[C@@H](NC(=O)OC)C(C)C)[nH]4)cc(F)c3-2)[nH]1)C1C[C@@H](C)O[C@@H](C)C1` (single isomer, unassigned) [Compound 66], the pIC50 is 11.64 with HCV replicon 1A (Hepatitis C virus); 11.68 in the assay on HCV replicon 1AY93H; 11.52 with HCV replicon 2B; 10.74 in the assay on HCV replicon 1AQ30D; 11.70 with HCV replicon 1B (Hepatitis C virus).
Turning to `COC(=O)NC(C(=O)N1CCC[C@H]1c1ncc(-c2ccc3c(c2)cc2n3C(c3cnc(C4CCC4)s3)Oc3cc(-c4cnc([C@@H]5CCCN5C(=O)[C@@H](NC(=O)OC)C(C)C)[nH]4)cc(F)c3-2)[nH]1)C1C[C@@H](C)O[C@@H](C)C1` (single isomer, unassigned) [Compound 67], the pIC50 in the assay with HCV replicon 1A is 11.70; with HCV replicon 1AY93H, 9.65; with HCV replicon 2B, 10.25; in the assay on HCV replicon 1AQ30D, 8.86; in the assay on HCV replicon 1B it was 11.70.
Broadly, the IC50 is the concentration that inhibits the measured activity by half. For the compound `COC(=O)NC(C(=O)N1CCC[C@H]1c1ncc(-c2ccc3c(c2)c(F)c2n3C(c3cnc(C4CC4)s3)Oc3cc(-c4cnc([C@@H]5CCCN5C(=O)[C@@H](NC(=O)OC)C(C)C)[nH]4)cc(F)c3-2)[nH]1)C1CCOC(C)(C)C1` (single isomer, unassigned) [Compound 72], the results for the pIC50 in the assay with HCV replicon 1A (Hepatitis C virus) and in the assay on HCV replicon 1B (Hepatitis C virus) were 11.54 and 11.62, respectively. Moreover, the IC50 stood at 0.006 nM with HCV replicon 1AY93H (Hepatitis C virus, read-out: 1A Y93H IC50 (nM), replicon 1AY93H); 0.005 nM with HCV replicon 2B (Hepatitis C virus, read-out: 2B IC50 (nM), replicon 2B); 0.099 nM in the assay on HCV replicon 1AQ30D.
Turning to `COC(=O)NC(C(=O)N1CCC[C@H]1c1ncc(-c2ccc3c(c2)cc2n3C(c3cnc(C(C)(C)O)s3)Oc3cc(-c4cnc([C@@H]5CCCN5C(=O)[C@@H](NC(=O)OC)C(C)C)[nH]4)cc(F)c3-2)[nH]1)C1C[C@@H](C)O[C@@H](C)C1` (single isomer, unassigned) [Compound 74], the pIC50 with HCV replicon 1A is 11.44; in the assay on HCV replicon 1AY93H it was 11.28; with HCV replicon 2B, 11.30; in the assay on HCV replicon 1B, 11.40. Besides, the IC50 in the assay on HCV replicon 1AQ30D was determined as 0.021 nM.
On to `COC(=O)NC(C(=O)N1CCC[C@H]1c1ncc(-c2ccc3c(c2)cc2n3C(c3nc(C(F)(F)F)cs3)Oc3cc(-c4cnc([C@@H]5CCCN5C(=O)[C@@H](NC(=O)OC)C(C)C)[nH]4)cc(F)c3-2)[nH]1)C1C[C@@H](C)O[C@@H](C)C1` (single isomer, unassigned) [Compound 76], for which the pIC50 in the assay with HCV replicon 1A was 11.57; in the assay with HCV replicon 1AY93H it was 10.49; in the assay on HCV replicon 2B, 9.85; in the assay on HCV replicon 1B (Hepatitis C virus), 11.52. Also, the IC50 in the assay on HCV replicon 1AQ30D was found to be 0.422 nM.
Regarding `COC(=O)N[C@H](C(=O)N1CCC[C@H]1c1ncc(-c2cc(F)c3c(c2)OC(c2cnc(-c4ccc(OC(F)(F)F)cc4)s2)n2c-3cc3cc(-c4cnc([C@@H]5CCCN5C(=O)[C@@H](NC(=O)OC)C(C)C)[nH]4)ccc32)[nH]1)C(C)C` (single isomer, unassigned) [Compound 77], the pIC50 was 11.46 in the assay on HCV replicon 1A; 11.25 in the assay with HCV replicon 1AY93H; 11.30 in the assay on HCV replicon 2B; 10.28 in the assay with HCV replicon 1AQ30D; 12.00 in the assay on HCV replicon 1B (Hepatitis C virus).
As to `COC(=O)N[C@H](C(=O)N1CCC[C@H]1c1ncc(-c2cc(F)c3c(c2)OC(c2cnc(-c4ccc(OC(F)(F)F)cc4)s2)n2c-3cc3cc(-c4cnc([C@@H]5CCCN5C(=O)[C@@H](NC(=O)OC)C(C)C)[nH]4)ccc32)[nH]1)C(C)C` (single isomer, unassigned) [Compound 78], the pIC50 with HCV replicon 1A is 11.85; with HCV replicon 1AY93H it was 9.78; in the assay with HCV replicon 2B it was 9.71; in the assay on HCV replicon 1AQ30D, 8.73; in the assay on HCV replicon 1B it was 12.00.
Turning to `CCc1ncc(C2Oc3cc(-c4cnc([C@@H]5CCCN5C(=O)[C@@H](NC(=O)OC)C(C)C)[nH]4)cc(F)c3-c3cc4cc(-c5cnc([C@@H]6CCCN6C(=O)[C@@H](NC(=O)OC)C(C)C)[nH]5)ccc4n32)s1` (single isomer, unassigned) [Compound 81], the pIC50 is 11.57 in the assay with HCV replicon 1A (Hepatitis C virus), 10.72 in the assay on HCV replicon 1AY93H, 10.57 in the assay with HCV replicon 2B and 11.70 in the assay with HCV replicon 1B (Hepatitis C virus). Further, the IC50 in the assay with HCV replicon 1AQ30D was determined as 0.384 nM.
